Measurements published in ChEMBL document CHEMBL1140726, “Discovery and biological evaluation of 5-aryl-2-furfuramides, potent and selective blockers of the Nav1.8 sodium channel with efficacy in models of neuropathic and inflammatory pain” (J Med Chem, 2008).

Experiments:
[1] = molecular target: T1, Sodium channel protein type 10 subunit alpha (Homo sapiens, UniProt Q9Y5Y9); assay: Activity at human recombinant Nav 1.8 channel expressed in HEK293 cells in resting state with prepulse voltage of -100 mV assessed as blockade of TTx-resistant sodium current at 0.03 uM; type: cell-based
Target sequence in this assay (Q9Y5Y9 whole entry, looked up): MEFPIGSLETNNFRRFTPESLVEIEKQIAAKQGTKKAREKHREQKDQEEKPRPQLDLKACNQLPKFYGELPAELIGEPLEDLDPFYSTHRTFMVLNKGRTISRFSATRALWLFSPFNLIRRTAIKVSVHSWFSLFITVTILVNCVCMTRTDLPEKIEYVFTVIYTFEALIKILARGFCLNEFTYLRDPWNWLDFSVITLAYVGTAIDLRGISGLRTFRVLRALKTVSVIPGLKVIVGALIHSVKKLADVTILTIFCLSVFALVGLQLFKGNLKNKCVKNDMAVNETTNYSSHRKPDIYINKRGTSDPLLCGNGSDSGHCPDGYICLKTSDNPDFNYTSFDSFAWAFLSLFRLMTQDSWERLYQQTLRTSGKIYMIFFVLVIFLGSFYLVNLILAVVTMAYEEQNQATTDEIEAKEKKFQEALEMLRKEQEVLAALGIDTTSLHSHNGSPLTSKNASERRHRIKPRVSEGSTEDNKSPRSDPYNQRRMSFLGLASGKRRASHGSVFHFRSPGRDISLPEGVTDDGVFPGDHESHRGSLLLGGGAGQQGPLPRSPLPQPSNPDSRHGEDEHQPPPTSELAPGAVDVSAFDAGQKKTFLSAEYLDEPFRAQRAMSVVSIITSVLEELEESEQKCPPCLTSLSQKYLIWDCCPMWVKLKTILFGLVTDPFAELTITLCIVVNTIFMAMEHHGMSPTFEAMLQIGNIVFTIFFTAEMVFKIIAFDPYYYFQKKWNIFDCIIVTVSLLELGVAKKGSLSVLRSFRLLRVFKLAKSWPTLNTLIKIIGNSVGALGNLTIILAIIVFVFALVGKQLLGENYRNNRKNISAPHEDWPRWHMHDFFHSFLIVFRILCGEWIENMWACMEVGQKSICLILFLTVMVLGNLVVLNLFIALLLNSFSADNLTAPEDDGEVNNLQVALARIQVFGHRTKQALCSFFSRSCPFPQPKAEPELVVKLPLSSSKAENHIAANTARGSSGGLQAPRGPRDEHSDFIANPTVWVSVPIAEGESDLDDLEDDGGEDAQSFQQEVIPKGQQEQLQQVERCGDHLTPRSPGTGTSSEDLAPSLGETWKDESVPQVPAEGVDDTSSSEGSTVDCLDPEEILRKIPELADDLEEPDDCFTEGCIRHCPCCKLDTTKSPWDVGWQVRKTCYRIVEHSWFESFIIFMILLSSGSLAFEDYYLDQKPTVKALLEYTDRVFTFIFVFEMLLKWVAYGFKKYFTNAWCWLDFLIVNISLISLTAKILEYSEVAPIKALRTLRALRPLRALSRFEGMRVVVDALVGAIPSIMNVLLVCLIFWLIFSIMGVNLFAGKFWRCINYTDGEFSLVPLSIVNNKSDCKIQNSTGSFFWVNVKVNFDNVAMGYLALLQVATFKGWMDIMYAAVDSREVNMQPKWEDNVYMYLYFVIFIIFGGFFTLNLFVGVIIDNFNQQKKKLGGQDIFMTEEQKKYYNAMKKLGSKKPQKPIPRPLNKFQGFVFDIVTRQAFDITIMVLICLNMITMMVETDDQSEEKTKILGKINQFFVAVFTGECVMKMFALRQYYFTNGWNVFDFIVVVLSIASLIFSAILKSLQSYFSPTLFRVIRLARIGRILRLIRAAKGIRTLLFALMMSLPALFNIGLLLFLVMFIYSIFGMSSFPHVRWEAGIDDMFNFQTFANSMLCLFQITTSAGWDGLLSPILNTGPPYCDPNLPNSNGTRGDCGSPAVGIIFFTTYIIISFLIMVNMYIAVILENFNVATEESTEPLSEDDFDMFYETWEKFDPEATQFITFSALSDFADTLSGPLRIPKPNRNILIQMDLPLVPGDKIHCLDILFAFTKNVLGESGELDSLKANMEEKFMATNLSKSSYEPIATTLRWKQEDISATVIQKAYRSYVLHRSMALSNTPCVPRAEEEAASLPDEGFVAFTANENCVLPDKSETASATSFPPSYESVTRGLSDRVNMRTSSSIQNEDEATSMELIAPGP

[2] = test system: Rattus norvegicus; assay: Antinociceptive activity in ip dosed Sprague-Dawley rat assessed as reduction of mechanical allodynia in Bennett model of neuropathic pain; type: functional; set-up: Activity: scale not given: the % may be the effect or the level left
[3] = molecular target: Sodium channel protein type 10 subunit alpha (Mus musculus, UniProt Q6QIY3); assay: Inhibition of mouse recombinant Nav 1.8 channel expressed in HEK293 cells by isotopic efflux assay; type: cell-based
[4] = molecular target: T1, Sodium channel protein type 10 subunit alpha; assay: Inhibition of human recombinant Nav 1.8 channel expressed in HEK293 cells at 0.03 uM; type: cell-based
Target sequence in this assay (Q9Y5Y9 whole entry, looked up): as above

[5] = molecular target: T1, Sodium channel protein type 10 subunit alpha; assay: Inhibition of human recombinant Nav 1.8 channel expressed in HEK293 cells at 0.01 uM; type: cell-based
Target sequence in this assay (Q9Y5Y9 whole entry, looked up): as above

[6] = molecular target: Sodium channel protein type 3 subunit alpha (Homo sapiens) (UniProt Q9NY46); assay: Inhibition of human Nav1.3 channel at 10 uM
[7] = molecular target: Sodium channel protein type 9 subunit alpha (Homo sapiens) (UniProt Q15858); assay: Inhibition of human Nav1.7 channel at 10 uM
[8] = Cmax in Sprague-Dawley rat at 10 mg/kg, ip; type: ADME, organism-based; set-up: dose 10 mg/kg, route intraperitoneal; conditions: in vivo
[9] = molecular target: Sodium channel protein type 9 subunit alpha (Homo sapiens) (UniProt Q15858); assay: Inhibition of human Nav1.7 channel at 3 uM
[10] = molecular target: T2, Nav1.5 (sodium channel protein type 5 subunit alpha) (Homo sapiens, UniProt Q14524); assay: Inhibition of human Nav1.5 channel at 3 uM
T2 sequence (Q14524 whole entry): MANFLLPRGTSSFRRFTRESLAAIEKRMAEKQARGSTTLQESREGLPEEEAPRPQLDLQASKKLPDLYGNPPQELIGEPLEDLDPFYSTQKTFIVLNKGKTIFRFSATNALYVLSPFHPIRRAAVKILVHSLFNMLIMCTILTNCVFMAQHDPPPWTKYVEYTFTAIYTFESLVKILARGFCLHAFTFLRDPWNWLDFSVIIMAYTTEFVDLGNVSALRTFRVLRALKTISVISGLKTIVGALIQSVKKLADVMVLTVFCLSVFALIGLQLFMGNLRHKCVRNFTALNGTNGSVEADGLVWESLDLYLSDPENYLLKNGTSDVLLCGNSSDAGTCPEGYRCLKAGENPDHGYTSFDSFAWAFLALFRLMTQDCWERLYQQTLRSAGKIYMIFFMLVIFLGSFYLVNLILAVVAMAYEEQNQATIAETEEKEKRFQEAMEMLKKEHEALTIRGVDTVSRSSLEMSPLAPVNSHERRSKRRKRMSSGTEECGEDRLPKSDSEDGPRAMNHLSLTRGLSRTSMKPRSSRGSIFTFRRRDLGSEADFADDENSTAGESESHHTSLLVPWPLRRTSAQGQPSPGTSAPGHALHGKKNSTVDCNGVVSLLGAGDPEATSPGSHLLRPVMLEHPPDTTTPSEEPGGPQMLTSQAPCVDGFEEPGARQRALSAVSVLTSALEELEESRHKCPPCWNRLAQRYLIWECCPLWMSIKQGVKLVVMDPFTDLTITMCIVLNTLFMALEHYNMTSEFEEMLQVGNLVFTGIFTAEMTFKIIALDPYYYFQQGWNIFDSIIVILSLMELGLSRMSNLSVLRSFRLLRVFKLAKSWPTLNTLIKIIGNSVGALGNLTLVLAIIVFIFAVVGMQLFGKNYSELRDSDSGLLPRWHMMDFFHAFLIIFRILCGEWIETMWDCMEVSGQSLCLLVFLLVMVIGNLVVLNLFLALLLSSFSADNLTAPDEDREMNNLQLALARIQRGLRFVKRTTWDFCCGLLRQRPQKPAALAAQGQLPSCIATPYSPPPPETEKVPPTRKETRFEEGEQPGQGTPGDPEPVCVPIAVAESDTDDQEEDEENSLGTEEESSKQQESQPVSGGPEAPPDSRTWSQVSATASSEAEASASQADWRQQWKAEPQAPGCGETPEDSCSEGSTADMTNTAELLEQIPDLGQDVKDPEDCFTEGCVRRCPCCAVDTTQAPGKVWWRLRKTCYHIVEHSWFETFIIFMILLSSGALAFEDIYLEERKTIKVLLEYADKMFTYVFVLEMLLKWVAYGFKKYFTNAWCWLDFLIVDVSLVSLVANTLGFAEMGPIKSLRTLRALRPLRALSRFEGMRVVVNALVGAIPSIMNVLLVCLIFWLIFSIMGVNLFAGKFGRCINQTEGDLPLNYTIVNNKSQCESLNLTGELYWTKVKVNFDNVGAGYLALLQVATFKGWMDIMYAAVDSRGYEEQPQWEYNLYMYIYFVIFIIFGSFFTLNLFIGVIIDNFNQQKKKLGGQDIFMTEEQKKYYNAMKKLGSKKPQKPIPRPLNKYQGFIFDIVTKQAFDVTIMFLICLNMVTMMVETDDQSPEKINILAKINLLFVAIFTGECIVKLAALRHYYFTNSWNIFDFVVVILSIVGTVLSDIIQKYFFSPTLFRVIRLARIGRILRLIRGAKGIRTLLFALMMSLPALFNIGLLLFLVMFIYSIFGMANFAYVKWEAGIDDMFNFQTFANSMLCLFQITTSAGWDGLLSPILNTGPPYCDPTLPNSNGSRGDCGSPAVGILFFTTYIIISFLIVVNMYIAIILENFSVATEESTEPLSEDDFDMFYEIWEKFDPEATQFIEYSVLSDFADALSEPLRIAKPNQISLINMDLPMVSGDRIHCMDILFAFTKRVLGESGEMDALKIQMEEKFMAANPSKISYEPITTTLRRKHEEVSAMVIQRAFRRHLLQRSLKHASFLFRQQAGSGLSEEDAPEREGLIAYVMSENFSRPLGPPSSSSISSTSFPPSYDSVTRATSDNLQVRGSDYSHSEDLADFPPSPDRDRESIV

[11] = molecular target: Sodium channel protein type 3 subunit alpha (Homo sapiens) (UniProt Q9NY46); assay: Inhibition of human Nav1.3 channel at 3 uM
[12] = Activity at rat dorsal root ganglion in resting state with prepulse voltage of -100 mV assessed as blockade of TTx-resistant sodium current at 0.1 uM by whole-cell patch clamp technique; type: functional
[13] = molecular target: T3, Translocator protein (Homo sapiens, UniProt P30536); assay: Binding affinity to peripheral benzodiazepine receptor at 10 uM
T3 sequence (P30536 whole entry): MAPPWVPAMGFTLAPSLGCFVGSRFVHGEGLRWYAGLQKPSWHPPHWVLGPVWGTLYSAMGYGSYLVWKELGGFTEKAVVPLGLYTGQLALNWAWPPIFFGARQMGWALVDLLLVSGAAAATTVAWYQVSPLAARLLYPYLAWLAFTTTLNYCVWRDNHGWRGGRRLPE

[14] = Activity at rat dorsal root ganglion in resting state with prepulse voltage of -100 mV assessed as blockade of TTx-resistant sodium current at 0.3 uM by whole-cell patch clamp technique; type: functional
[15] = Volume of distribution at steady state in Sprague-Dawley rat; type: ADME, organism-based; conditions: in vivo, read-out: Vdss
[16] = molecular target: T2, Nav1.5 (sodium channel protein type 5 subunit alpha); assay: Inhibition of human Nav1.5 channel at 10 uM
[17] = Activity at rat dorsal root ganglion in inactivated state with prepulse voltage of -40 mV assessed as blockade of TTx-resistant sodium current at 0.1 uM by whole-cell patch clamp technique; type: functional
[18] = molecular target: Sodium channel protein type 2 subunit alpha (Homo sapiens) (UniProt Q99250); assay: Inhibition of human Nav1.2 channel at 10 uM
[19] = test system: Rattus norvegicus; assay: Antinociceptive activity in ip dosed Sprague-Dawley rat assessed as reduction of CFA-induced thermal hyperalgesia; type: functional; set-up: Activity: scale not given: the % may be the effect or the level left
[20] = molecular target: T3, Translocator protein; assay: Binding affinity to peripheral benzodiazepine receptor
[21] = Ratio of drug level in brain to plasma in Sprague-Dawley rat; type: ADME
[22] = Bioavailability in Sprague-Dawley rat at 10 mg/kg, ip; type: ADME, organism-based; conditions: in vivo
[23] = Oral bioavailability in Sprague-Dawley rat; type: ADME, organism-based; conditions: in vivo
[24] = molecular target: T1, Sodium channel protein type 10 subunit alpha; assay: Activity at human recombinant Nav 1.8 channel expressed in HEK293 cells in resting state with prepulse voltage of -100 mV assessed as blockade of TTx-resistant sodium current at 0.01 uM; type: cell-based
Target sequence in this assay (Q9Y5Y9 whole entry, looked up): as the sequence (Q9Y5Y9 whole entry, looked up) above

[25] = Half life in Sprague-Dawley rat; type: ADME, organism-based; conditions: in vivo
[26] = molecular target: Sodium channel protein type 2 subunit alpha (Homo sapiens) (UniProt Q99250); assay: Inhibition of human Nav1.2 channel at 3 uM
[27] = Intrinsic clearance in Sprague-Dawley rat microsomes after 1 hr; type: ADME, Liver, Microsome
[28] = Clearance in Sprague-Dawley rat plasma; type: ADME, organism-based
[29] = molecular target: Voltage-gated inwardly rectifying potassium channel KCNH2 (Homo sapiens, UniProt Q12809); assay: Inhibition of hERG potassium channel expressed in CHO cells by isotope efflux assay
[30] = molecular target: T1, Sodium channel protein type 10 subunit alpha; assay: Activity at human recombinant Nav 1.8 channel expressed in HEK293 cells in inactivated state with prepulse voltage of -40 mV assessed as blockade of TTx-resistant sodium current at 0.01 uM; type: cell-based
Target sequence in this assay (Q9Y5Y9 whole entry, looked up): as above

[31] = Activity at rat dorsal root ganglion in inactivated state with prepulse voltage of -40 mV assessed as blockade of TTx-resistant sodium current at 0.3 uM by whole-cell patch clamp technique; type: functional
[32] = test system: Rattus norvegicus; assay: Antinociceptive activity in ip dosed Sprague-Dawley rat assessed as attenuation of mechanical allodynia in chung model of neuropathic pain; type: functional
[33] = Protein binding in Sprague-Dawley rat plasma; type: ADME, cell-free; conditions: read-out: PPB (converted)
[34] = molecular target: T1, Sodium channel protein type 10 subunit alpha; assay: Activity at human recombinant Nav 1.8 channel expressed in HEK293 cells in inactivated state with prepulse voltage of -40 mV assessed as blockade of TTx-resistant sodium current at 0.03 uM; type: cell-based
Target sequence in this assay (Q9Y5Y9 whole entry, looked up): as above

[35] = molecular target: Sodium channel protein type 5 subunit alpha (Homo sapiens, UniProt Q14524); assay: Inhibition of human Nav1.5 channel at 1 uM
[36] = molecular target: T1, Sodium channel protein type 10 subunit alpha; assay: Inhibition of human recombinant Nav 1.8 channel expressed in HEK293 cells; type: cell-based
Target sequence in this assay (Q9Y5Y9 whole entry): as the sequence (Q9Y5Y9 whole entry, looked up) above

[37] = Rattus norvegicus, Sprague-Dawley, ip

**Q.** For Cc1cccc(NC(=O)c2ccc(-c3ccc(C#N)cc3)o2)c1, which inhibition [1] is on record?
**A.** 29%

**Q.** What about the Activity [2] of the same molecule?
**A.** 21%

**Q.** And the ED50 [2, 37]?
**A.** > 100 mg/kg

**Q.** What about the IC50 [3] of the same molecule?
**A.** 0.48 µM

**Q.** What about the inhibition [4] of the same molecule?
**A.** 51%

**Q.** What about the inhibition [5] of the same molecule?
**A.** 33%

**Q.** And the inhibition [6]?
**A.** 58%

**Q.** What about the inhibition [7] of the same molecule?
**A.** 54%

**Q.** And the Cmax [8]?
**A.** 750 ng/mL

**Q.** And the inhibition [9]?
**A.** 26%

**Q.** And the inhibition at 3 µM [10]?
**A.** 61%

**Q.** And the inhibition [11]?
**A.** 47%

**Q.** And the inhibition at 0.1 µM [12]?
**A.** 38%

**Q.** And the inhibition [13]?
**A.** > 60%

**Q.** And the inhibition at 0.3 µM [14]?
**A.** 52%

**Q.** What about the Vd [15] of the same molecule?
**A.** 1.9 L/kg

**Q.** What about the inhibition at 10 µM [16] of the same molecule?
**A.** 74%

**Q.** What about the inhibition at 0.1 µM [17] of the same molecule?
**A.** 41%

**Q.** And the inhibition [18]?
**A.** 57%

**Q.** What about the Activity [19] of the same molecule?
**A.** 55%

**Q.** And the ED50 [19, 37]?
**A.** 98 mg/kg

**Q.** What about the IC50 [20] of the same molecule?
**A.** > 2 µM

**Q.** What about the Kp [21] of the same molecule?
**A.** 0.35

**Q.** What about the bioavailability [22] of the same molecule?
**A.** 36%

**Q.** And the bioavailability [23]?
**A.** 4%

**Q.** What about the inhibition [24] of the same molecule?
**A.** 14%

**Q.** And the half-life [25]?
**A.** 1.9 h

**Q.** What about the inhibition [26] of the same molecule?
**A.** 32%

**Q.** And the microsomal CLint [27]?
**A.** 260 µL/min/mg

**Q.** What about the clearance [28] of the same molecule?
**A.** 40 mL/min/kg

**Q.** And the IC50 [29]?
**A.** 5.8 µM

**Q.** What about the inhibition [30] of the same molecule?
**A.** 33%

**Q.** And the inhibition at 0.3 µM [31]?
**A.** 74%

**Q.** And the Activity [32]?
**A.** 86%

**Q.** What about the ED50 [32, 37] of the same molecule?
**A.** 38 mg/kg

**Q.** What about the fraction unbound [33] of the same molecule?
**A.** 0.017

**Q.** And the inhibition [34]?
**A.** 51%

**Q.** What about the IC50 [35] of the same molecule?
**A.** > 2 µM

**Q.** And the IC50 [36]?
**A.** 0.079 µM
